The structures appear in SMILES notation.

The series in a line: in vitro. Conditions: human, hek293t cells.
Broadly, the viability is a read-out of living cells in per cent, often relative to untreated cells. With `C=CC(=O)Nc1ccc(C(=O)N2CCC(C(C)C)CC2)cc1` [3-B15, N-{4-[4-(propan-2-yl)piperidine-1-carbonyl]phenyl}prop-2-enamide], the viability at 48 h, 25 µM stood at 27.5%.

On to `C=CC(=O)N1CCn2c(cnc2C(F)(F)F)C1` [3-B16, 1-[3-(trifluoromethyl)-5H,6H,7H,8H-imidazo[1,5-a]pyrazin-7-yl]prop-2-en-1-one], for which the viability at 48 h, 25 µM is 81.8%.

As for `C=CC(=O)NCC1CCN(c2ccccc2)C1` (stereo not drawn) [3-B17, N-[(1-phenylpyrrolidin-3-yl)methyl]prop-2-enamide], the viability at 48 h, 25 µM was found to be 66.8%.

Take `C=CC(=O)NCc1ccnc(-n2cncn2)c1` [3-B18, N-{[2-(1H-1,2,4-triazol-1-yl)pyridin-4-yl]methyl}prop-2-enamide]: the viability at 48 h, 25 µM was found to be 92.7%.

For the compound `C=CC(=O)NCc1cc(C(F)(F)C(F)(F)F)on1` [3-B19, N-{[5-(1,1,2,2,2-pentafluoroethyl)-1,2-oxazol-3-yl]methyl}prop-2-enamide], the viability at 48 h, 25 µM amounted to 48.4%.

In the case of `C=CC(=O)NCc1noc2c1CCCC2` [3-B20, N-[(4,5,6,7-tetrahydro-1,2-benzoxazol-3-yl)methyl]prop-2-enamide], the viability at 48 h, 25 µM is 74.4%.

Regarding `C=CC(=O)NCCNC(=O)c1cc2ccccc2[nH]1` [3-B21, N-{2-[(1H-indol-2-yl)formamido]ethyl}prop-2-enamide], the viability at 48 h, 25 µM stood at 63.1%.

Turning to `C=CC(=O)N1CCc2nn(C(C)C)c(=O)cc2C1` [3-B22, 6-(prop-2-enoyl)-2-(propan-2-yl)-2H,3H,5H,6H,7H,8H-pyrido[4,3-c]pyridazin-3-one], the viability at 48 h, 25 µM was found to be 87.7%.

As to `C=CC(=O)N1CCC(n2cnc3ccccc3c2=O)C1` (stereo not drawn) [3-C03, 3-[1-(prop-2-enoyl)pyrrolidin-3-yl]-3,4-dihydroquinazolin-4-one], the viability at 48 h, 25 µM is 63.6%.

For the compound `C=CC(=O)N(C)CC(=O)N1CCc2cc(OC)c(OC)cc2C1C` (stereo not drawn) [3-C04, N-[2-(6,7-dimethoxy-1-methyl-1,2,3,4-tetrahydroisoquinolin-2-yl)-2-oxoethyl]-N-methylprop-2-enamide], the viability at 48 h, 25 µM worked out at 84.6%.

Turning to `C=CC(=O)NCc1nc(-c2ccccc2)oc1C` [3-C05, N-[(5-methyl-2-phenyl-1,3-oxazol-4-yl)methyl]prop-2-enamide], the viability at 48 h, 25 µM was 50.4%.

As to `C=CC(=O)N1CCC(C(=O)Nc2ccccc2NS(C)(=O)=O)CC1` [3-C06, N-(2-methanesulfonamidophenyl)-1-(prop-2-enoyl)piperidine-4-carboxamide], the viability at 48 h, 25 µM was 82.7%.

With `C=CC(=O)N1CCC(C(=O)NC2CC2(C)C)CC1` (stereo not drawn) [3-C07, N-(2,2-dimethylcyclopropyl)-1-(prop-2-enoyl)piperidine-4-carboxamide], the viability at 48 h, 25 µM is 30.9%.

Take `C=CC(=O)N1CCn2c(nnc2C2CCCC2)C1` [3-C09, 1-{3-cyclopentyl-5H,6H,7H,8H-[1,2,4]triazolo[4,3-a]pyrazin-7-yl}prop-2-en-1-one]: the viability at 48 h, 25 µM was 29.4%.

Take `C=CC(=O)Nc1ccc(C(=O)NC2CCN(C(C)C)C2=O)cc1` (stereo not drawn) [3-C10, N-[2-oxo-1-(propan-2-yl)pyrrolidin-3-yl]-4-(prop-2-enamido)benzamide]: the viability at 48 h, 25 µM is 60.6%.

On to `C=CC(=O)NC(C)Cn1cncn1` (stereo not drawn) [3-C11, N-[1-(1H-1,2,4-triazol-1-yl)propan-2-yl]prop-2-enamide], for which the viability at 48 h, 25 µM was determined as 37.9%.

For the compound `C=CC(=O)NCCC1CCCS1(=O)=O` (stereo not drawn) [3-C12, N-[2-(1,1-dioxo-1lambda6-thiolan-2-yl)ethyl]prop-2-enamide], the viability at 48 h, 25 µM came out at 86.1%.

Regarding `C=CC(=O)N1CCOC(Cn2nc(C)cc2C)C1` (stereo not drawn) [3-C13, 1-{2-[(3,5-dimethyl-1H-pyrazol-1-yl)methyl]morpholin-4-yl}prop-2-en-1-one], the viability at 48 h, 25 µM was determined as 40.5%.

On to `C=CC(=O)N[C@H]1C[C@H](C)S(=O)(=O)c2sccc21` [3-C14, N-[(2S,4S)-2-methyl-1,1-dioxo-2H,3H,4H-1lambda6-thieno[2,3-b]thiopyran-4-yl]prop-2-enamide], for which the viability at 48 h, 25 µM was 84.1%.

Consider `C=CC(=O)N1CCC(C(=O)NCc2nnc(C(C)C)n2C)CC1` [3-C16, N-{[4-methyl-5-(propan-2-yl)-4H-1,2,4-triazol-3-yl]methyl}-1-(prop-2-enoyl)piperidine-4-carboxamide], for which the viability at 48 h, 25 µM was 78.5%.

Regarding `C=CC(=O)N1CCC(C(=O)N2CCC(C(=O)NCC(C)C)CC2)CC1` [3-C17, N-(2-methylpropyl)-1-[1-(prop-2-enoyl)piperidine-4-carbonyl]piperidine-4-carboxamide], the viability at 48 h, 25 µM was 34.6%.

On to `C=CC(=O)N1CCC(C(=O)NCCO)CC1` [3-C18, N-(2-hydroxyethyl)-1-(prop-2-enoyl)piperidine-4-carboxamide], for which the viability at 48 h, 25 µM is 72.9%.

`C=CC(=O)N1CCC(C(=O)N2Cc3ccccc3C[C@H]2C(N)=O)CC1` [3-C19, (3S)-2-[1-(prop-2-enoyl)piperidine-4-carbonyl]-1,2,3,4-tetrahydroisoquinoline-3-carboxamide]: the viability at 48 h, 25 µM stood at 29.6%.

Regarding `C=CC(=O)N(C)CC(=O)N1CCCC(CC(N)=O)CC1` (stereo not drawn) [3-C20, N-{2-[4-(carbamoylmethyl)azepan-1-yl]-2-oxoethyl}-N-methylprop-2-enamide], the viability at 48 h, 25 µM turned out to be 68.6%.

Consider `C=CC(=O)NCCNS(=O)(=O)c1cc(C)sc1C` [3-C21, N-[2-(2,5-dimethylthiophene-3-sulfonamido)ethyl]prop-2-enamide], for which the viability at 48 h, 25 µM amounted to 34.6%.

`C=CC(=O)NCc1cnoc1C` [3-C22, N-[(5-methyl-1,2-oxazol-4-yl)methyl]prop-2-enamide]: the viability at 48 h, 25 µM worked out at 51.5%.

As to `C=CC(=O)N(CC)CC(=O)N1CCN(c2ccc(C#N)cc2F)CC1` [3-D03, N-{2-[4-(4-cyano-2-fluorophenyl)piperazin-1-yl]-2-oxoethyl}-N-ethylprop-2-enamide], the viability at 48 h, 25 µM was 74.4%.

On to `C=CC(=O)NCc1nc(-c2ccc(F)cc2)n[nH]1` [3-D04, N-{[3-(4-fluorophenyl)-1H-1,2,4-triazol-5-yl]methyl}prop-2-enamide], for which the viability at 48 h, 25 µM was determined as 95.1%.

In the case of `C=CC(=O)Nc1cc(NC(=O)C2(OC)CCOC2)ccc1F` (stereo not drawn) [3-D05, N-[4-fluoro-3-(prop-2-enamido)phenyl]-3-methoxyoxolane-3-carboxamide], the viability at 48 h, 25 µM was found to be 75.8%.

Turning to `C=CC(=O)Nc1cn(CC(F)(F)F)nc1C` [3-D06, N-[3-methyl-1-(2,2,2-trifluoroethyl)-1H-pyrazol-4-yl]prop-2-enamide], the viability at 48 h, 25 µM amounted to 55.3%.

For the compound `C=CC(=O)NCCC(=O)N1CCN(c2ccc(C#N)cc2F)CC1` [3-D07, N-{3-[4-(4-cyano-2-fluorophenyl)piperazin-1-yl]-3-oxopropyl}prop-2-enamide], the viability at 48 h, 25 µM came to 56.6%.

For the compound `C=CC(=O)NCCC(=O)NC1CCSc2ccc(F)cc21` (stereo not drawn) [3-D08, N-{2-[(6-fluoro-3,4-dihydro-2H-1-benzothiopyran-4-yl)carbamoyl]ethyl}prop-2-enamide], the viability at 48 h, 25 µM was determined as 70.7%.

Turning to `C=CC(=O)NCc1cn(C2CCC2)nn1` [3-D09, N-[(1-cyclobutyl-1H-1,2,3-triazol-4-yl)methyl]prop-2-enamide], the viability at 48 h, 25 µM was determined as 48.7%.

Take `C=CC(=O)NC(C)Cn1cc(C(=O)O)cn1` (stereo not drawn) [3-D10, 1-[2-(prop-2-enamido)propyl]-1H-pyrazole-4-carboxylic acid]: the viability at 48 h, 25 µM is 96%.

Take `C=CC(=O)N(C)CC1(O)CCc2ccccc21` (stereo not drawn) [3-D11, N-[(1-hydroxy-2,3-dihydro-1H-inden-1-yl)methyl]-N-methylprop-2-enamide]: the viability at 48 h, 25 µM was 58.6%.

In the case of `C=CC(=O)N1CCC(C(=O)NCc2cn3ccc(C)nc3n2)CC1` [3-D12, N-({7-methylimidazo[1,2-a]pyrimidin-2-yl}methyl)-1-(prop-2-enoyl)piperidine-4-carboxamide], the viability at 48 h, 25 µM was 75.3%.

Regarding `C#CCN(C(=O)c1ccc(NC(=O)C=C)cc1)C1CCCCC1` [3-D13, N-cyclohexyl-4-(prop-2-enamido)-N-(prop-2-yn-1-yl)benzamide], the viability at 48 h, 25 µM was determined as 15.9%.

Consider `C=CC(=O)NCc1ccc2oc(=O)[nH]c2c1` [3-D14, N-[(2-oxo-2,3-dihydro-1,3-benzoxazol-5-yl)methyl]prop-2-enamide], for which the viability at 48 h, 25 µM was found to be 103%.

Regarding `C=CC(=O)N(C)CC(=O)N1CCCc2ccccc21` [3-D15, N-methyl-N-[2-oxo-2-(1,2,3,4-tetrahydroquinolin-1-yl)ethyl]prop-2-enamide], the viability at 48 h, 25 µM amounted to 65.7%.

As to `C=CC(=O)Nc1cccc(NS(=O)(=O)C2CC2)c1` [3-D16, N-(3-cyclopropanesulfonamidophenyl)prop-2-enamide], the viability at 48 h, 25 µM came out at 80.5%.

As to `C=CC(=O)N1CCCC(S(=O)(=O)NC)C1` (stereo not drawn) [3-D17, N-methyl-1-(prop-2-enoyl)piperidine-3-sulfonamide], the viability at 48 h, 25 µM was 67.5%.

Take `C=CC(=O)N[C@H]1C[C@H](S(C)(=O)=O)C1` [3-D18, N-[(1r,3r)-3-methanesulfonylcyclobutyl]prop-2-enamide]: the viability at 48 h, 25 µM turned out to be 83.6%.

Consider `C=CC(=O)N1CCC=C(c2cn(C(C)C)nn2)CC1` [3-D19, 1-{4-[1-(propan-2-yl)-1H-1,2,3-triazol-4-yl]-2,3,6,7-tetrahydro-1H-azepin-1-yl}prop-2-en-1-one], for which the viability at 48 h, 25 µM was found to be 78.1%.

With `C=CC(=O)N1CCN(S(=O)(=O)CC)CC1` [3-D20, 1-[4-(ethanesulfonyl)piperazin-1-yl]prop-2-en-1-one], the viability at 48 h, 25 µM was 106%.

For `C=CC(=O)NC(c1nc(C)cs1)C1CC1` (stereo not drawn) [3-D21, N-[cyclopropyl(4-methyl-1,3-thiazol-2-yl)methyl]prop-2-enamide], the viability at 48 h, 25 µM is 74.9%.

On to `C=CC(=O)N1CCCc2c(OCC(N)=O)cccc21` [3-D22, 2-{[1-(prop-2-enoyl)-1,2,3,4-tetrahydroquinolin-5-yl]oxy}acetamide], for which the viability at 48 h, 25 µM was 95.2%.

As for `C=CC(=O)NC[C@@H]1CCCN1c1ccccc1` [3-E03, N-{[(2S)-1-phenylpyrrolidin-2-yl]methyl}prop-2-enamide], the viability at 48 h, 25 µM is 60.1%.

For the compound `C=CC(=O)Nc1ccc(C(=O)N2CCC(C)(C)S(=O)(=O)CC2)cc1` [3-E04, N-[4-(7,7-dimethyl-1,1-dioxo-1lambda6,4-thiazepane-4-carbonyl)phenyl]prop-2-enamide], the viability at 48 h, 25 µM stood at 78.6%.
